In patent US11110102B2, “Antifungal agents used in combination” (Scynexis, Inc., priority 2017, dated 2021):

Columns and labels:
[1] = system: A. fumigatus MRL #28500; assay: Checkerboard combination MIC testing; assay type: cell-based, Aspergillus fumigatus; conditions: read at 48 hours, duplicate
Text: To determine the type of interaction between a representative compound of the enfumafungin derivatives (SCY-078) with several antifungal agents against Aspergillus fumigatus, the most frequent mold causing invasive disease in humans, the checkerboard method was used. The citrate salt of the compound was used in the studies.
The checkerboard method involves the determination of percent growth inhibition of fungal cells in the presence of different combinations of drugs. Percent growth inhibition is calculated relative to growth in control wells which contain only cells and no drug. The assay was performed in 96-well microplates in which each row and each column contained twofold serial dilutions of drug A and drug B at concentrations ranging from 0 to slightly higher than their minimum inhibitory concentration (MIC). […] Then the inoculum was added to each well and the growth was evaluated after 48 hrs incubation to determine the first well in which growth was inhibited. The checkerboard-based determination of MICs of antifungal agents in combination was followed by further analysis employing the nonparametric fractional inhibitory concentration index (FICI), which is defined by the following equation:
[formula] where MIC-A and MIC-B are the MICs of drugs A and B, respectively.
Each drug was initially diluted in either sterile, distilled water or in DMSO, depending on whether the drug was water-soluble or water-insoluble, respectively.
Stock solution of SCY-078 was prepared in DMSO at 200 times the concentration desired for use in the drug plates. Serial dilutions of stock solution were conducted in DMSO to obtain eleven 2-fold dilutions of the drug. The SCY-078 solution was then diluted to 4 times the desired concentration in RPMI-1640 medium so that the DMSO would not limit growth of the organism and so that the quantity of DMSO was the same for every dilution.
Two 96-well plates are needed to conduct a combination test. Using a multichannel pipette, 50 μl of the lowest concentration of the first drug (Drug A) was added to each well of column 1 of the first plate (plate A) and column 1 of the second plate (plate B; rows A-D). Then, 50 μl of the next highest working dilution of Drug A was added to each well in column 2, continuing with dilutions until all columns 1-11 were filled. Column 12 was left empty. 50 μl of the lowest concentration of Drug B was added to each well in Row D of plate B. 50 μl of the next highest working dilution of Drug B was added to each well in row C of plate B, continuing with dilutions until all rows through row B of plate A were filled.
Following the above, 100 μl of organism inoculum was added to every well. The plates were then incubated for 48 hours and visually read after incubation.
The objective of the study was to determine whether the combination of SCY-078 with voriconazole, isavuconazole, or amphotericin B would result in a combined in vitro antifungal activity exceeding the sum of the activities of each drug alone. Combination MIC testing was performed using the checkerboard assay described above.
A. fumigatus 28500 has a CYP51 mutation at F46Y.
Initial MIC determinations of the individual antifungals were performed according to the Clinical and Laboratory Standards Institute (CLSI) M38-A2 standard for the susceptibility testing of filamentous fungi.
Combination MIC testing was performed using a checkerboard test method according to the Center for Medical Mycology SOP A11.3. The checkerboard combination test method is a modification of the microdilution antifungal susceptibility test wherein two test compounds are combined in varying concentrations to determine whether they have synergistic, antagonistic, or no effect on the respective MIC values.
Antifungals were serially diluted two-fold in RPMI medium to produce eleven concentrations each and were combined in wells of a microtiter plate. Two rows consisting of serial dilutions of each individual drug were included. […]

[2] = system: NIH Aspergillus fumigatus isolate 4215; assay: Neutropenic rabbit model of invasive pulmonary aspergillosis (New Zealand White rabbits); assay type: in vivo; conditions: intravenously once daily
Experimental: A study was conducted to evaluate the efficacy of the combination of SCY-078 with isavuconazole. Isavuconazole is a second generation antifungal triazole with activity against Aspergillus spp. As described above, invasive pulmonary aspergillosis is a life-threatening infection in immunosuppressed patients—particularly those with severe and prolonged neutropenia as a consequence of myelotoxic chemotherapy for the treatment of cancer, and those receiving immunosuppressive medication for rejection prophylaxis after organ transplantation or treatment of graft-versus-host disease (GVHD) after allogeneic bone marrow transplantation. A neutropenic rabbit model was selected for this in vivo evaluation to further illustrate the effect of the combination therapy of SCY-078 and an azole, in a relevant immunosuppressed population.
New Zealand White rabbits weighing 2.5 to 3.5 kg (Covance Research Products, Inc., Denver, Pa.) were used in this study. Vascular access was established by the surgical placement of a silastic tunneled central venous catheter. Cytosine arabinoside (Cytosar-U) 525 mg/m^2 was administered intravenously on days 1 through 5, and on days 8, 9, 13 and 14 to produce profound and persistent neutropenia (a neutrophil concentration of <100 neutrophils/μL). Methylprednisolone (Solu-Medrol®, Pfizer, NY) 5 mg/kg was administered on days 1 through 3 to inhibit macrophage activity. […]
Survival, pulmonary infarct, and galactomannan antigenemia (a serological marker of Aspergillus infection) were evaluated as indicators of treatment response. […] Serum galactomannan concentrations were determined by the Platelia® Aspergillus enzyme immunoassay (EIA) (Bio-Rad, Marnes-la-Coquette, France) one-stage immunoenzymatic sandwich microplate assay method. Enzyme immunoassay data were expressed as a serum GMI (galactomannan index) plotted over time.

C[C@@H](c1nc(-c2ccc(C#N)cc2)cs1)[C@](O)(Cn1cncn1)c1cc(F)ccc1F [Isavuconazole, isavuconazole]
MIC per drug in Combination ([1]; A. fumigatus MRL 28500 (azole-resistant, CYP51 F46Y), SCY-078 combined with isavuconazole): >8 µg/mL
MIC ([1]; Aspergillus fumigatus, SCY078, 48 h, read-out: MIC per drug Alone, A. fumigatus MRL 28500 (azole-resistant, CYP51 F46Y), drug alone, SCY-078/isavuconazole test): > 8 µg/mL
survival rate up to day 13 ([2]; ISA40: isavuconazole 40 mg/kg/day alone, 2 out of 6): 32%

CC(C)[C@@H](C)[C@@]1(C)CC[C@]2(C)[C@H]3CC[C@@H]4[C@@]5(COC[C@@]4(C)[C@@H](OC[C@](C)(N)C(C)(C)C)[C@H](n4ncnc4-c4ccncc4)C5)C3=CC[C@@]2(C)[C@@H]1C(=O)O [SCY-078, (1S,4aR,6aS,7R,8R,10aR,10bR,12aR,14R,15R)-15-[[(2R)-2-amino-2,3,3-trimethylbutyl]oxy]-8-[(1R)-1,2-dimethylpropyl]-14-[5-(4-pyridinyl)-1H-1,2,4-triazol-1-yl]-1,6,6a,7,8,9,10,10a,10b,11,12,12a-dodecahydro-1,6a,8,10a-tetramethyl-4H-1,4a-propano-2H-phenanthro[1,2-c]pyran-7-carboxylic acid]
MIC in Combination ([1]; A. fumigatus MRL 28500 (azole-resistant, CYP51 F46Y), SCY-078 combined with voriconazole): 1 µg/mL
MIC Alone ([1]; A. fumigatus MRL 28500 (azole-resistant, CYP51 F46Y), drug alone, SCY-078/voriconazole test): 8 µg/mL
survival rate up to day 13 ([2]; SCY2.5: SCY-078 2.5 mg/kg/day alone, 1 out of 6): 16%
survival until day 13 ([2]; SCY7.5: SCY-078 7.5 mg/kg/day alone, six per group): no animals surviving until day 13
